The subject of data set [1] is differentiated conditionally immortalized PTECs (ciPTECs, OAT-1). Put plainly: ciPTEC toxicity assay (PrestoBlue). It counts as cell-based, human. As to the method: ciPTECs (OAT-1) cells,[52],[53] grown to 90–100% confluence, were washed by Hanks’ balanced salt solution (HBSS; Gibco, Life Technologies, Paisley, U.K.) and detached by accutase (4 mL) for 5 min at 37 °C. The cells were then suspended in fresh medium (DMEM/F-12, supplemented with 10% fetal calf serum, insulin (5 μg/mL), transferrin (5 μg/mL), selenium (5 μg/mL) hydrocortisone (35 ng/mL), Epidermal Growth Factor (10 ng/mL) and tri-iodothyronine (40 pg/mL)). Cell density was adjusted to 2.0 × 10^5 cells/mL, of which 100 μL was added to each well of a 96-well plate. The cells were incubated for 24 h at 33 °C, followed by 6 days at 37 °C, in a humidified atmosphere containing 5% (v/v) CO2. The medium was refreshed every second or third day.
Compounds were dissolved and serially diluted in serum-free medium. Differentiated cells were washed once with HBSS and serially diluted compounds (80 μL/well) were transferred to the ciPTEC-containing plate. Compounds were incubated for 24 h at 37 °C; the cells were washed by HBSS, followed by incubation with 10% PrestoBlue cell viability reagent (Thermo Scientific, Vienna, Austria) in HBSS at 37 °C in the dark. Fluorescence was recorded (excitation: 530 nm, emission: 590 nm). Raw data are corrected for PrestoBlue background fluorescence and reported relative to the no-treatment control (cells with medium only). Viability data were fitted with GraphPad Prism software (version 5.03; GraphPad Software, La Jolla, CA), by nonlinear regression with 0 as bottom constraint. Presented data are based on triplicates.
Toxicity assessment on PTECs
Table S1. TC50 values for polymyxin analogues. Toxicity assessment on proximal tubular epithelial cells
performed using PrestoBlue™ assay. TC50 values are derived after non-linear regression analysis on cell viability
correspond to data obtained from 2 different batches of cells/analyses on different days. As the value for
polymyxin B differs 2-fold, values in the manuscript are presented relative to the polymyxin B value.
Compound TC50 (µ M) Compound TC50 (µ M)
Polymyxin B 80 Polymyxin B 41
Figure S3. Representative traces of ciPTECs’ viability after incubation with analogues for 24 hours. Shown data are based on […]

Data set [2] concerns E. coli (ATCC 25922). In kind it is cell-based. To be noted: ATCC 25922. As to the method:
(§1) Minimum inhibitory concentrations (MICs) on relevant Gram-negative bacteria were determined by broth microdilution, in accordance with CLSI guidelines. Indicated bacteria were taken from glycerol stocks and incubated overnight on blood agar at 37 °C. Well-isolated colonies were taken, suspended in TSB (5 mL), and grown to an OD600 of 0.5. Compounds to be tested were dissolved in DMSO (6.4 mg/mL), diluted in cation-adjusted Mueller–Hinton Broth (CAMHB) (12.5 and 20 μg/mL Mg^2+ and Ca^2+, respectively), and diluted serially on polypropylene microtiter plates. To the diluted compounds (50 μL per well) was added 50 μL of relevant bacterial suspension, to yield a final concentration of 10^6 CFU/mL. Plates were covered by adhesive gas-permeable membranes and incubated at 37 °C. MIC was read out as the lowest concentration that inhibited visual bacterial growth. Shown values are consistent results from at least duplicate experiments.

In data set [3] the test system is P. aeruginosa (ATCC 27853). In kind it is cell-based. To be noted: ATCC 27853. The protocol:
as §1

For data set [4], the system named is K. pneumoniae (ATCC 13883). It counts as cell-based. To be noted: ATCC 13883. As to the method:
as §1

Data set [5] has as its system A. baumannii (ATCC 19606). It counts as cell-based. To be noted: ATCC 19606. The protocol: as §1

Consider five compounds from PMC9743094, “Synthesis and Evaluation of Polymyxins Bearing Reductively Labile Disulfide-Linked Lipids” (Journal of Medicinal Chemistry, 2022).

Structures are written as SMILES. Converted amounts (≈) assume the structure as drawn. Positions of bridges follow the written chain, without caps; N, C: chain ends. Non-standard residues stand in square brackets, D forms with d. Residues, ends and D or L forms follow the SMILES beside them. *: point of attachment. S(2-cyclohexylethyl) = C1CCC(CCS*)CC1; X6 = c1ccc(-c2ccc(S*)cc2)cc1; Dab = NCC[C@H](N)C(=O)O; X4 = CCCCCCS*

As for `CC(C)C[C@@H]1NC(=O)[C@@H](Cc2ccccc2)NC(=O)[C@H](CCN)NC(=O)[C@@H](NC(=O)[C@H](CCN)NC(=O)[C@@H](NC(=O)[C@@H](CSSCCC2CCCCC2)NC(=O)CN)[C@@H](C)O)CCNC(=O)[C@H]([C@@H](C)O)NC(=O)[C@H](CCN)NC(=O)[C@H](CCN)NC1=O` [Compound 23b] (H-G[dC](S(2-cyclohexylethyl))T[Dab][Dab][Dab][dF]L[Dab][Dab]T; lactam 5-C), the “TC50, Day 2” value in data set [1] is listed as 58 µM. Also, in data set [2], the “MIC E. coli (ATCC 25922)” value turned out to be 2 µg/mL (≈ 1.58 µM). Besides, in data set [3], the “MIC P. aeruginosa (ATCC 27853)” value turned out to be 1 µg/mL (≈ 0.79 µM). The “MIC K. pneumoniae (ATCC 13883)” value in data set [4] was found to be 1 µg/mL (≈ 0.79 µM). In addition, the “MIC A. baumannii (ATCC 19606)” value in data set [5] stood at 1 µg/mL (≈ 0.79 µM).
Regarding `CC(C)C[C@@H]1NC(=O)[C@@H](Cc2ccccc2)NC(=O)[C@H](CCN)NC(=O)[C@@H](NC(=O)[C@H](CCN)NC(=O)[C@@H](NC(=O)[C@H](N)CSSCCC2CCCCC2)[C@@H](C)O)CCNC(=O)[C@H]([C@@H](C)O)NC(=O)[C@H](CCN)NC(=O)[C@H](CCN)NC1=O` [Compound 19b] (H-[dC](S(2-cyclohexylethyl))T[Dab][Dab][Dab][dF]L[Dab][Dab]T; lactam 4-C), in data set [1], the “TC50, Day 2” value is listed as 51 µM. Moreover, the “MIC E. coli (ATCC 25922)” value in data set [2] was found to be 1 µg/mL (≈ 0.827 µM). In addition, in data set [3], the “MIC P. aeruginosa (ATCC 27853)” value was 2 µg/mL (≈ 1.65 µM). Besides, the “MIC K. pneumoniae (ATCC 13883)” value in data set [4] came to 1 µg/mL (≈ 0.827 µM). In addition, the “MIC A. baumannii (ATCC 19606)” value in data set [5] turned out to be 1 µg/mL (≈ 0.827 µM).
As for `CCCCCCSSC[C@H](N)C(=O)N[C@H](C(=O)N[C@@H](CCN)C(=O)N[C@H]1CCNC(=O)[C@H]([C@@H](C)O)NC(=O)[C@H](CCN)NC(=O)[C@H](CCN)NC(=O)[C@H](CC(C)C)NC(=O)[C@@H](Cc2ccccc2)NC(=O)[C@H](CCN)NC1=O)[C@@H](C)O` [Compound 17a] (H-C(X4)T[Dab][Dab][Dab][dF]L[Dab][Dab]T; lactam 4-C), in data set [1], the “TC50, Day 1” value is on record as 421 µM and the “ciPTEC Toxicity Index (relative to polymyxin B)” value was determined as 5.3. In data set [2], the “MIC E. coli (ATCC 25922)” value came to 8 µg/mL (≈ 6.77 µM). In addition, the “MIC P. aeruginosa (ATCC 27853)” value in data set [3] stood at 2 µg/mL (≈ 1.69 µM). For the same compound, in data set [4], the “MIC K. pneumoniae (ATCC 13883)” value is 4 µg/mL (≈ 3.38 µM). The “MIC A. baumannii (ATCC 19606)” value in data set [5] was above 32 µg/mL.
`CCCCCCSSC[C@@H](N)C(=O)N[C@H](C(=O)N[C@@H](CCN)C(=O)N[C@H]1CCNC(=O)[C@H]([C@@H](C)O)NC(=O)[C@H](CCN)NC(=O)[C@H](CCN)NC(=O)[C@H](CC(C)C)NC(=O)[C@@H](Cc2ccccc2)NC(=O)[C@H](CCN)NC1=O)[C@@H](C)O` [Compound 17b] (H-[dC](X4)T[Dab][Dab][Dab][dF]L[Dab][Dab]T; lactam 4-C): in data set [1], the “TC50, Day 1” value is on record as 240 µM and the “ciPTEC Toxicity Index (relative to polymyxin B)” value amounted to 3.0. Besides, in data set [2], the “MIC E. coli (ATCC 25922)” value came to 2 µg/mL (≈ 1.69 µM). Moreover, in data set [3], the “MIC P. aeruginosa (ATCC 27853)” value is 2 µg/mL (≈ 1.69 µM). The “MIC K. pneumoniae (ATCC 13883)” value in data set [4] worked out at 0.5 µg/mL (≈ 0.423 µM). Moreover, the “MIC A. baumannii (ATCC 19606)” value in data set [5] is 1 µg/mL (≈ 0.846 µM).
On to `CC(C)C[C@@H]1NC(=O)[C@@H](Cc2ccccc2)NC(=O)[C@H](CCN)NC(=O)[C@@H](NC(=O)[C@H](CCN)NC(=O)[C@@H](NC(=O)[C@H](CSSc2ccc(-c3ccccc3)cc2)NC(=O)CN)[C@@H](C)O)CCNC(=O)[C@H]([C@@H](C)O)NC(=O)[C@H](CCN)NC(=O)[C@H](CCN)NC1=O` [Compound 31a] (H-GC(X6)T[Dab][Dab][Dab][dF]L[Dab][Dab]T; lactam 5-C), for which the “MIC E. coli (ATCC 25922)” value in data set [2] came out at 4 µg/mL (≈ 3.06 µM). In addition, the “MIC P. aeruginosa (ATCC 27853)” value in data set [3] is 8 µg/mL (≈ 6.12 µM). Besides, in data set [4], the “MIC K. pneumoniae (ATCC 13883)” value was 2 µg/mL (≈ 1.53 µM). The “MIC A. baumannii (ATCC 19606)” value in data set [5] came out at 16 µg/mL (≈ 12.2 µM).
